Experimental data reported in US11597702B2, “Substituted pyrazoles FFA4/GPR120 receptor agonists” (AXXAM S.P.A., priority 2018, dated 2023).

Target: T1, GPR120 (Homo sapiens, UniProt Q5NUL3)
T1 construct: expressed in transfected cells; host or cells: CHO mitoPhotinaGPR120 cells
T1 sequence (Q5NUL3 1-361): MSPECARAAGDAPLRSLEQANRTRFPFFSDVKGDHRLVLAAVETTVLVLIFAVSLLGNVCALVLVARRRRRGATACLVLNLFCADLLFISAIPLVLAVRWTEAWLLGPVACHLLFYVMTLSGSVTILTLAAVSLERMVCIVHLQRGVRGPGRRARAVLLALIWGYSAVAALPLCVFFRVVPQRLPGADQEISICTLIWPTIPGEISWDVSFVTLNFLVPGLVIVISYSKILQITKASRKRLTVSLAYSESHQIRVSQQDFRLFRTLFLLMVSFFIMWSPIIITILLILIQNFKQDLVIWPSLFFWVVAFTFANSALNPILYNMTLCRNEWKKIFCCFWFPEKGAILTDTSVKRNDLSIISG
Experiment: GPR120 agonism in CHO mitoPhotinaGPR120 cell based assay with fluorescent (Fluo-8 calcium, FLIPRTetra) readout, Agonist Mode, dose response
Settings: CHO mitoPhotinaGPR120 cells, Fluo-8 No Wash Ca2+ dye, dose response in quadruplicate, 0.0033% fatty acid free BSA
Experimental: Compounds of the invention were tested for GPR120 agonism in a CHO mitoPhotinaGPR120 cell based assay with fluorescent readout in Agonist Mode in dose response in quadruplicate with intra-plate modality.
Twenty (20) h after seeding, growth medium was manually removed and cells were starved in the presence of 25 μL/w of Standard Tyrode's Buffer. After 3 h, cells were loaded with 20 μL/w of 0.5× Fluo-8 No Wash (AAT Bioquest, Inc.) Ca2+ sensitive dye prepared in Standard Tyrode's Buffer. Cells were incubated for 1 h at room temperature in the dark. Ten (10) μL/w 3× of controls and compounds were diluted in Standard Tyrode's Buffer+0.01% fatty acid free BSA (final concentration=0.0033%) and injected at the FLIPRTetra®, recording the kinetic calcium traces for 3 minutes. Standard Tyrode's buffer composition: 5 mM KCl, 130 mM NaCl, 2 mM CaCl2), 5 mM NaHCO3, 1 mM MgCl2, 20 mM HEPES, pH7.4.

| SMILES | EC50 |
| --- | --- |
| Cc1nn(-c2ccccc2)c(CSc2ccc(CCO)cc2)c1C#N [Example 59, 5-[[4-(2-hydroxyethyl)phenyl]sulfanylmethyl]-3-methyl-1-phenyl-pyrazole-4-carbonitrile] | 2.63 µM |
| Cc1nn(-c2ccccc2)c(COc2ccc3n[nH]cc3c2)c1C#N [Example 61, 5-(2~{H}-indazol-5-yloxymethyl)-3-methyl-1-phenyl-pyrazole-4-carbonitrile] | 1.02 µM |
| Cc1nn(-c2ccccc2)c(COc2ccc3ccncc3c2)c1C#N [Example 62, 5-(7-isoquinolyloxymethyl)-3-methyl-1-phenyl-pyrazole-4-carbonitrile] | 2.6 µM |
| Cc1nn(-c2ccccc2)c(COc2cccc3cccnc23)c1C#N [Example 63, 3-methyl-1-phenyl-5-(8-quinolyloxymethyl)pyrazole-4-carbonitrile] | 16.4 µM |
| Cc1nn(-c2ccccc2)c(COc2cccnc2C#N)c1C#N [Example 64, 3-[(4-cyano-5-methyl-2-phenyl-pyrazol-3-yl)methoxy]pyridine-2-carbonitrile] | 19.1 µM |
| Cc1nn(-c2ccccc2)c(COc2cccnc2F)c1C#N [Example 65, 5-[(2-fluoro-3-pyridyl)oxymethyl]-3-methyl-1-phenyl-pyrazole-4-carbonitrile] | 3.56 µM |
| Cc1ccncc1OCc1c(C#N)c(C)nn1-c1ccccc1 [Example 68, 3-methyl-5-[(4-methyl-3-pyridyl)oxymethyl]-1-phenyl-pyrazole-4-carbonitrile] | 8.32 µM |
| Cc1ccc(OCc2c(C#N)c(C)nn2-c2ccccc2)cn1 [Example 69, 3-methyl-5-[(6-methyl-3-pyridyl)oxymethyl]-1-phenyl-pyrazole-4-carbonitrile] | 9.82 µM |
| Cc1ccnc(C)c1OCc1c(C#N)c(C)nn1-c1ccccc1 [Example 70, 5-[(2,4-dimethyl-3-pyridyl)oxymethyl]-3-methyl-1-phenyl-pyrazole-4-carbonitrile] | 2.3 µM |
| Cc1nn(-c2ccccc2)c(COc2ccc(F)nc2F)c1C#N [Example 71, 5-[(2,6-difluoro-3-pyridyl)oxymethyl]-3-methyl-1-phenyl-pyrazole-4-carbonitrile] | 5.69 µM |
| Cc1cccc(-n2nc(C)c(C#N)c2COc2ccc(CCO)cc2)c1 [Example 73, 5-[[4-(2-hydroxyethyl)phenoxy]methyl]-3-methyl-1-(m-tolyl)pyrazole-4-carbonitrile] | 1.98 µM |
| Cc1ccc(-n2nc(C)c(C#N)c2COc2ccc(CCO)cc2)cc1 [Example 74, 5-[[4-(2-hydroxyethyl)phenoxy]methyl]-3-methyl-1-(p-tolyl)pyrazole-4-carbonitrile] | 0.49 µM |
| Cc1nn(-c2cccc(Cl)c2)c(COc2ccc(CCO)cc2)c1C#N [Example 75, 1-(3-chlorophenyl)-5-[[4-(2-hydroxyethyl)phenoxy]methyl]-3-methyl-pyrazole-4-carbonitrile] | 4.61 µM |
| Cc1nn(-c2ccc(Cl)cc2)c(COc2ccc(CCO)cc2)c1C#N [Example 76, 1-(4-chlorophenyl)-5-[[4-(2-hydroxyethyl)phenoxy]methyl]-3-methyl-pyrazole-4-carbonitrile] | 0.76 µM |
| Cc1nn(-c2cccc(C(F)(F)F)c2)c(COc2ccc(CCO)cc2)c1C#N [Example 77, 5-[[4-(2-hydroxyethyl)phenoxy]methyl]-3-methyl-1-[3-(trifluoromethyl)phenyl]pyrazole-4-carbonitrile] | 9.03 µM |
| CCc1ccc(-n2nc(C)c(C#N)c2COc2ccc(CCO)cc2)cc1 [Example 78, 1-(4-ethylphenyl)-5-[[4-(2-hydroxyethyl)phenoxy]methyl]-3-methyl-pyrazole-4-carbonitrile] | 0.38 µM |

| SMILES | EC50 |
| --- | --- |
| COc1cccc(-n2nc(C)c(C#N)c2COc2ccc(CCO)cc2)c1 [Example 79, 5-[[4-(2-hydroxyethyl)phenoxy]methyl]-1-(3-methoxyphenyl)-3-methyl-pyrazole-4-carbonitrile] | 1.64 µM |
| COc1ccc(-n2nc(C)c(C#N)c2COc2ccc(CCO)cc2)cc1 [Example 80, 5-[[4-(2-hydroxyethyl)phenoxy]methyl]-1-(4-methoxyphenyl)-3-methyl-pyrazole-4-carbonitrile] | 0.64 µM |
| Cc1nn(-c2ccccc2F)c(COc2ccc(CCO)cc2)c1C#N [Example 82, 1-(2-fluorophenyl)-5-[[4-(2-hydroxyethyl)phenoxy]methyl]-3-methyl-pyrazole-4-carbonitrile] | 3.41 µM |
| Cc1nn(-c2ccc(F)cc2)c(COc2ccccc2)c1C#N [Example 83, 1-(4-fluorophenyl)-3-methyl-5-(phenoxymethyl)pyrazole-4-carbonitrile] | 2.22 µM |
| Cc1nn(-c2ccc(F)cc2)c(COc2ccc(CCO)cc2)c1C#N [Example 84, 1-(4-fluorophenyl)-5-[[4-(2-hydroxyethyl)phenoxy]methyl]-3-methyl-pyrazole-4-carbonitrile] | 1.54 µM |
| Cc1nn(-c2ccc(F)cc2)c(COc2cccc(F)c2)c1C#N [Example 85, 5-[(3-fluorophenoxy)methyl]-1-(4-fluorophenyl)-3-methyl-pyrazole-4-carbonitrile] | 4.55 µM |
| Cc1ccccc1OCc1c(C#N)c(C)nn1-c1ccc(F)cc1 [Example 86, 1-(4-fluorophenyl)-3-methyl-5-[(2-methylphenoxy)methyl]pyrazole-4-carbonitrile] | 1.58 µM |
| Cc1nn(-c2ccc(F)cc2)c(COc2ccc(CCCO)cc2)c1C#N [Example 87, 1-(4-fluorophenyl)-5-[[4-(3-hydroxypropyl)phenoxy]methyl]-3-methyl-pyrazole-4-carbonitrile] | 0.18 µM |
| Cc1nn(Cc2ccccc2)c(COc2ccc(CCO)cc2)c1C#N [Example 88, 1-benzyl-5-[[4-(2-hydroxyethyl)phenoxy]methyl]-3-methyl-pyrazole-4-carbonitrile] | 11.2 µM |
| Cc1nn(Cc2ccccc2)c(COc2ccc(CCCO)cc2)c1C#N [Example 89, 1-benzyl-5-[[4-(3-hydroxypropyl)phenoxy]methyl]-3-methyl-pyrazole-4-carbonitrile] | 0.99 µM |
| Cc1nn(Cc2ccccc2)c(COc2c(F)cc(CCCO)cc2F)c1C#N [Example 90, 1-benzyl-5-[[2,6-difluoro-4-(3-hydroxypropyl)phenoxy]methyl]-3-methyl-pyrazole-4-carbonitrile] | 0.31 µM |
| COc1ccc(Cn2nc(C)c(C#N)c2COc2ccc(CCO)cc2)cc1 [Example 91, 5-[[4-(2-hydroxyethyl)phenoxy]methyl]-1-[(4-methoxyphenyl)methyl]-3-methyl-pyrazole-4-carbonitrile] | 16.5 µM |
| Cc1nn(-c2ccccc2)c(C(C)Oc2ccc(CCO)cc2)c1C#N (stereo not shown) [Example 92, 5-[1-[4-(2-hydroxyethyl)phenoxy]ethyl]-3-methyl-1-phenyl-pyrazole-4-carbonitrile] | 3.66 µM |
| Cc1nn(-c2ccccc2)c(C(C)Oc2c(F)cc(CCCO)cc2F)c1C#N (stereo not shown) [Example 93, 5-[1-[2,6-difluoro-4-(3-hydroxypropyl)phenoxy]ethyl]-3-methyl-1-phenyl-pyrazole-4-carbonitrile] | 0.33 µM |
| Cc1nn(-c2ccccc2)c(C(F)(F)Oc2ccc(CCO)cc2)c1C#N [Example 94, 5-[difluoro-[4-(2-hydroxyethyl)phenoxy]methyl]-3-methyl-1-phenyl-pyrazole-4-carbonitrile] | 1.35 µM |
